Experimental data: ChEMBL document CHEMBL1201862, “PubChem BioAssay data set” (2004)
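Protocol summary: plate cells (96-well), add compound at 5 concentrations, incubate 48 h, interpolate endpoints linearly. The concentration for 50% growth inhibition is given as GI50.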 Active and inactive are the calls of the source. No stated cut-off is given here; in the data, active = GI50 up to about 1.1 µM and inactive = higher.

How the values were obtained:
Experiment in all cases: NCI anticancer screen, dose series, 48 h
SF-539 = system: SF-539
A498 = system: A498
SNB-75 = system: SNB-75
CAKI-1 = system: CAKI-1
HCC 2998 = system: HCC 2998
DMS-273 = system: DMS-273
Malme-3M = system: Malme-3M
ACHN = system: ACHN
K562 = system: K562
SF-268 = system: SF-268
SW-620 = system: SW-620
HOP-62 = system: HOP-62
NCI-H23 = system: NCI-H23
OVCAR-5 = system: OVCAR-5
SR = system: SR
PC-3 = system: PC-3
MCF7 = system: MCF7
NCI/ADR-RES = system: NCI/ADR-RES
MDA-MB-435 = system: MDA-MB-435
Hs-578T = system: Hs-578T

SMILES | GI50 (SF-539) | GI50 (A498) | GI50 (SNB-75) | GI50 (CAKI-1) | GI50 (HCC 2998) | GI50 (DMS-273) | GI50 (Malme-3M) | GI50 (ACHN) | GI50 (K562) | GI50 (SF-268) | GI50 (SW-620) | GI50 (HOP-62) | GI50 (NCI-H23) | GI50 (OVCAR-5) | GI50 (SR) | GI50 (PC-3) | GI50 (MCF7) | GI50 (NCI/ADR-RES) | GI50 (MDA-MB-435) | GI50 (Hs-578T)
N#Cc1c2c(c(N=P(c3ccccc3)(c3ccccc3)c3ccccc3)n3c1nc1ccccc13)CCCC2 | 45.1 µM (inactive) | 20.2 µM (inactive) | 24.5 µM (inactive) | 30 µM (inactive) | 26.3 µM (inactive) | 14.5 µM (inactive) | 36 µM (inactive) | 15.7 µM (inactive) | 4.76 µM (inactive) | > 100 µM (inactive) | 20.8 µM (inactive) | 19 µM (inactive) | – | – | – | – | – | – | – | –
COC(=O)N/N=C(\Cc1ccccc1)CN(C)C | > 100 µM (inactive) | > 100 µM (inactive) | > 100 µM (inactive) | – | > 100 µM (inactive) | > 100 µM (inactive) | > 100 µM (inactive) | > 100 µM (inactive) | > 100 µM (inactive) | > 100 µM (inactive) | > 100 µM (inactive) | > 100 µM (inactive) | > 100 µM (inactive) | > 100 µM (inactive) | – | – | – | – | – | –
On1c(-c2ccccc2)c(-c2c(-c3ccccc3)n(O)c3ccccc23)c2ccccc21 | 24.8 µM (inactive) | – | 27.5 µM (inactive) | – | – | 39.6 µM (inactive) | 32.3 µM (inactive) | 29.9 µM (inactive) | 36.6 µM (inactive) | 55 µM (inactive) | – | – | 27.3 µM (inactive) | – | – | – | – | – | – | –
CCCCCC/C=C/CCCCCCCc1cccc(O)c1C(=O)O | 59.4 µM (inactive) | – | > 100 µM (inactive) | > 100 µM (inactive) | – | 34.9 µM (inactive) | > 100 µM (inactive) | 85.5 µM (inactive) | 37.2 µM (inactive) | 26.9 µM (inactive) | 62.4 µM (inactive) | 33.6 µM (inactive) | 38.5 µM (inactive) | > 100 µM (inactive) | > 100 µM (inactive) | – | – | – | – | –
C=C1C[C@@H](O)[C@@H](Br)C(C)(C)[C@]12CCC(C)(Br)C(Cl)C2 (stereo not given in full) | > 50 µM (inactive) | > 50 µM (inactive) | > 50 µM (inactive) | > 50 µM (inactive) | > 50 µM (inactive) | – | > 50 µM (inactive) | > 50 µM (inactive) | > 50 µM (inactive) | > 50 µM (inactive) | > 50 µM (inactive) | > 50 µM (inactive) | > 50 µM (inactive) | 1.7 µM (inactive) | > 50 µM (inactive) | 0.8 µM (active) | > 50 µM (inactive) | > 50 µM (inactive) | > 50 µM (inactive) | > 50 µM (inactive)
CC(C)(C)CC(C)(C)c1cc2c(O)c(c1)Cc1cc(C(C)(C)CC(C)(C)C)cc(c1O)Cc1cc(C(C)(C)CC(C)(C)C)cc(c1O)Cc1cc(C(C)(C)CC(C)(C)C)cc(c1O)Cc1cc(C(C)(C)CC(C)(C)C)cc(c1O)Cc1cc(C(C)(C)CC(C)(C)C)cc(c1O)C2 | > 100 µM (inactive) | – | > 100 µM (inactive) | – | > 100 µM (inactive) | > 100 µM (inactive) | > 100 µM (inactive) | > 100 µM (inactive) | > 100 µM (inactive) | > 100 µM (inactive) | > 100 µM (inactive) | > 100 µM (inactive) | > 100 µM (inactive) | > 100 µM (inactive) | – | – | – | – | – | –
N#CC(NNC(=O)c1ccccc1O)c1ccccc1 (stereo not given) | 3.33 µM (inactive) | – | 0.38 µM (active) | 2.91 µM (inactive) | – | 0.468 µM (active) | 4.75 µM (inactive) | 0.479 µM (active) | 0.404 µM (active) | 0.422 µM (active) | 8.02 µM (inactive) | 5.89 µM (inactive) | 1.72 µM (inactive) | 22.1 µM (inactive) | 0.689 µM (active) | – | – | – | – | –
O[C@]12c3ccccc3C1CCCCC2N1CCOCC1 (stereo not given in full) | – | – | > 100 µM (inactive) | – | – | > 100 µM (inactive) | > 100 µM (inactive) | > 100 µM (inactive) | > 100 µM (inactive) | > 100 µM (inactive) | > 100 µM (inactive) | > 100 µM (inactive) | > 100 µM (inactive) | – | > 100 µM (inactive) | – | – | – | – | –
O=C(CCl)Nc1ccc(-c2nc3ccccc3s2)cc1 | 3.04 µM (inactive) | 6.82 µM (inactive) | 4.06 µM (inactive) | 1.74 µM (inactive) | 2.51 µM (inactive) | – | 2.07 µM (inactive) | 5.28 µM (inactive) | 1.91 µM (inactive) | 2.81 µM (inactive) | 2.21 µM (inactive) | 3.72 µM (inactive) | 2.96 µM (inactive) | 5.82 µM (inactive) | 1.46 µM (inactive) | 2.56 µM (inactive) | 0.184 µM (active) | 4.59 µM (inactive) | 4.03 µM (inactive) | 5.96 µM (inactive)
COc1cc(=O)n2c3ccccc3n(C)c2c1C#N | > 100 µM (inactive) | > 100 µM (inactive) | > 100 µM (inactive) | > 100 µM (inactive) | > 100 µM (inactive) | – | > 100 µM (inactive) | 76.9 µM (inactive) | > 100 µM (inactive) | > 100 µM (inactive) | > 100 µM (inactive) | > 100 µM (inactive) | > 100 µM (inactive) | > 100 µM (inactive) | > 100 µM (inactive) | > 100 µM (inactive) | > 100 µM (inactive) | > 100 µM (inactive) | > 100 µM (inactive) | > 100 µM (inactive)
O=C1NC2=NN=C(c3ccc(Br)cc3)CN2NC12c1ccccc1-c1ccccc12 | > 100 µM (inactive) | > 100 µM (inactive) | > 100 µM (inactive) | > 100 µM (inactive) | > 100 µM (inactive) | – | > 100 µM (inactive) | > 100 µM (inactive) | > 100 µM (inactive) | > 100 µM (inactive) | > 100 µM (inactive) | > 100 µM (inactive) | > 100 µM (inactive) | > 100 µM (inactive) | 69.2 µM (inactive) | > 100 µM (inactive) | 73.3 µM (inactive) | > 100 µM (inactive) | > 100 µM (inactive) | 37 µM (inactive)
COc1cc2ccc1OCc1cccc(n1)COc1ccc(cc1OC)/C=N\CCNCCNCC/N=C\2 | > 100 µM (inactive) | > 100 µM (inactive) | > 100 µM (inactive) | > 100 µM (inactive) | > 100 µM (inactive) | – | > 100 µM (inactive) | > 100 µM (inactive) | > 100 µM (inactive) | > 100 µM (inactive) | > 100 µM (inactive) | > 100 µM (inactive) | > 100 µM (inactive) | > 100 µM (inactive) | > 100 µM (inactive) | > 100 µM (inactive) | 49 µM (inactive) | > 100 µM (inactive) | > 100 µM (inactive) | > 100 µM (inactive)
C[C@]12CC[C@H](O)CC1=CC[C@@H]1C2CC[C@]2(C)Nc3c(cnn3-c3ccccc3)CC12 (stereo not given in full) | 0.9 µM (active) | 3.61 µM (inactive) | 1 µM (active) | 2.96 µM (inactive) | 3.56 µM (inactive) | 0.869 µM (active) | 4.35 µM (inactive) | 3.26 µM (inactive) | 2.61 µM (inactive) | – | 2.6 µM (inactive) | 2.81 µM (inactive) | 3.88 µM (inactive) | 3.96 µM (inactive) | – | – | – | – | – | –
COc1ccc(C2SCC(=O)N2NC(=O)C(C)Oc2ccccc2C)cc1 (stereo not given) | > 100 µM (inactive) | 46 µM (inactive) | > 100 µM (inactive) | > 100 µM (inactive) | > 100 µM (inactive) | – | > 100 µM (inactive) | 68.5 µM (inactive) | 41.4 µM (inactive) | > 100 µM (inactive) | > 100 µM (inactive) | > 100 µM (inactive) | 55.6 µM (inactive) | > 100 µM (inactive) | 28.2 µM (inactive) | > 100 µM (inactive) | 54.1 µM (inactive) | 65.2 µM (inactive) | 82.8 µM (inactive) | > 100 µM (inactive)
N#Cc1nc(-c2cccs2)oc1N | > 100 µM (inactive) | > 100 µM (inactive) | 92.3 µM (inactive) | 3.09 µM (inactive) | > 100 µM (inactive) | – | > 100 µM (inactive) | > 100 µM (inactive) | > 100 µM (inactive) | > 100 µM (inactive) | > 100 µM (inactive) | > 100 µM (inactive) | > 100 µM (inactive) | > 100 µM (inactive) | > 100 µM (inactive) | > 100 µM (inactive) | 83.2 µM (inactive) | > 100 µM (inactive) | > 100 µM (inactive) | > 100 µM (inactive)
CC(C)(C)[Si](C)(C)OCC1C=CC(n2cnc3c(N)ncnc32)O1 (stereo not given) | > 47.4 µM (inactive) | > 79.3 µM (inactive) | 16.6 µM (inactive) | > 100 µM (inactive) | > 100 µM (inactive) | – | 61.1 µM (inactive) | > 100 µM (inactive) | 9.1 µM (inactive) | 83.2 µM (inactive) | 21 µM (inactive) | 69.8 µM (inactive) | 39.1 µM (inactive) | 72.8 µM (inactive) | 15.1 µM (inactive) | 39.8 µM (inactive) | 30.1 µM (inactive) | 34.2 µM (inactive) | 22.3 µM (inactive) | 47.2 µM (inactive)
CCC(C#N)N(Cc1cccc(CN(C(C)=O)C(C#N)CC)c1)C(C)=O (stereo not given) | > 100 µM (inactive) | > 100 µM (inactive) | 12 µM (inactive) | > 100 µM (inactive) | 97.1 µM (inactive) | – | > 100 µM (inactive) | > 100 µM (inactive) | > 100 µM (inactive) | > 100 µM (inactive) | > 100 µM (inactive) | > 100 µM (inactive) | > 100 µM (inactive) | > 100 µM (inactive) | 77.8 µM (inactive) | > 100 µM (inactive) | > 100 µM (inactive) | 84.1 µM (inactive) | > 100 µM (inactive) | > 100 µM (inactive)
